Measurements: US9695155B2, “Herbicidal substituted pyrimidinyloxy benzene compounds” (E. I. DU PONT DE NEMOURS AND COMPANY, priority 2013, dated 2017)

What was measured:
Test in all cases: Test F preemergence
Settings in all cases: 21 days, scale 0 to 100
crabgrass, naked = format: in vivo, Digitaria nuda
Source text: (§1) Seeds of plant species selected from bermudagrass (Cynodon dactylon), surinam grass (Brachiaria decumbens), large (Lg) crabgrass (Digitaria sanguinalis), crabgrass, naked (naked crabgrass, Digitaria nuda), foxtail, green (green foxtail, Setaria viridis), johnsongrass (Sorghum halepense), kochia (Kochia scoparia), morningglory (pitted morningglory, Ipomoea lacunosa), nutsedge, purple (purple nutsedge, Cyperus rotundus), ragweed (common ragweed, Ambrosia elatior), mustard, black (black mustard, Brassica nigra), guineagrass (Panicum maximum), dallisgrass (Paspalum dilatatum), barnyardgrass (Echinochloa crus-galli), sandbur (southern sandbur, Cenchrus echinatus), sowthistle (common sowthistle, Sonchus oleraceous), Italian ryegrass (Lolium multiflorum), signalgrass (broadleaf signalgrass, Brachiaria platyphylla), dayflower (Virginia (VA) dayflower, Commelina virginica), bluegrass (annual bluegrass, Poa annua), quackgrass (Elytrigia repens), mallow (common mallow, Malva sylvestris), buckwheat, wild (wild buckwheat, Polygonum convolvulus), leafy spurge (Euphorbia esula), chickweed (common chickweed, Stellaria media), wild poinsettia (Euphorbia heterophylla), and pigweed (Amaranthus retroflexus) were planted into a blend of loam soil and sand and treated preemergence with test chemicals formulated in a non-phytotoxic solvent mixture which included a surfactant.
(§2) Treated plants and controls were maintained in a greenhouse for 21 days, after which time all species were compared to controls and visually evaluated. Plant response ratings, summarized in Table F, are based on a scale of 0 to 100 where 0 is no effect and 100 is complete control. A dash (-) response means no test result.

foxtail, green = format: in vivo, Setaria viridis
Source text: as §1, §2

barnyardgrass = format: in vivo, Echinochloa crus-galli
Source text: as §1, §2

johnsongrass = format: in vivo, Sorghum halepense
Source text: as §1, §2

sowthistle = format: in vivo, Sonchus oleraceous
Source text: as §1, §2

surinam grass = format: in vivo, Brachiaria decumbens
Source text: as §1, §2

[1] = tested on: morningglory (pitted morningglory); format: in vivo, Ipomoea lacunosa
Source text: as §1, §2

N#Cc1cccc(Oc2ncc(Cl)cn2)c1-n1cc(C(F)(F)F)cn1 [Compound 58, 3-[(5-chloro-2-pyrimidinyl)oxy]-2-[4-(trifluoromethyl)-1H-pyrazol-1-yl]benzonitrile]
Plant response rating, Crabgrass, Naked (crabgrass, naked; 16 g ai/ha): 100
Plant response rating, Crabgrass, Naked (crabgrass, naked; 31 g ai/ha): 100
Plant response rating, Crabgrass, Naked (crabgrass, naked; 62 g ai/ha): 100
Plant response rating, Crabgrass, Naked (crabgrass, naked; 125 g ai/ha): 100
Plant response rating, Crabgrass, Naked (crabgrass, naked; 250 g ai/ha): 100
Plant response rating, Foxtail, Green (foxtail, green; 16 g ai/ha): 75
Plant response rating, Foxtail, Green (foxtail, green; 31 g ai/ha): 100
Plant response rating, Foxtail, Green (foxtail, green; 62 g ai/ha): 100
Plant response rating, Foxtail, Green (foxtail, green; 125 g ai/ha): 100
Plant response rating, Foxtail, Green (foxtail, green; 250 g ai/ha): 100
Plant response rating, Barnyardgrass (barnyardgrass; 16 g ai/ha): 70
Plant response rating, Barnyardgrass (barnyardgrass; 31 g ai/ha): 100
Plant response rating, Barnyardgrass (barnyardgrass; 62 g ai/ha): 100
Plant response rating, Barnyardgrass (barnyardgrass; 125 g ai/ha): 100
Plant response rating, Barnyardgrass (barnyardgrass; 250 g ai/ha): 100
Plant response rating, Johnsongrass (johnsongrass; 16 g ai/ha): 65
Plant response rating, Johnsongrass (johnsongrass; 31 g ai/ha): 98
Plant response rating, Johnsongrass (johnsongrass; 62 g ai/ha): 100
Plant response rating, Johnsongrass (johnsongrass; 125 g ai/ha): 100
Plant response rating, Johnsongrass (johnsongrass; 250 g ai/ha): 100
Plant response rating, Sowthistle (sowthistle; 16 g ai/ha): 100
Plant response rating, Sowthistle (sowthistle; 31 g ai/ha): 100
Plant response rating, Sowthistle (sowthistle; 62 g ai/ha): 100
Plant response rating, Sowthistle (sowthistle; 125 g ai/ha): 100
Plant response rating, Sowthistle (sowthistle; 250 g ai/ha): 100
Plant response rating, Surinam Grass (surinam grass; 16 g ai/ha): 25
Plant response rating, Surinam Grass (surinam grass; 31 g ai/ha): 60
Plant response rating, Surinam Grass (surinam grass; 62 g ai/ha): 98
Plant response rating, Surinam Grass (surinam grass; 125 g ai/ha): 100
Plant response rating, Surinam Grass (surinam grass; 250 g ai/ha): 100
Plant response rating, Morningglory ([1]; 16 g ai/ha): 100
Plant response rating, Morningglory ([1]; 31 g ai/ha): 98
Plant response rating, Morningglory ([1]; 62 g ai/ha): 100
Plant response rating, Morningglory ([1]; 125 g ai/ha): 100
Plant response rating, Morningglory ([1]; 250 g ai/ha): 100
